US20230116399A1, “Tumor Homing Statin Derivatives” (Da Zen Theranostics, Inc., priority 2019, published 2023)

How the values were obtained:
[1] = test system: H446 human small cell lung cancer (SCLC) cells; test: Mouse xenograft model, H446 SCLC; format: in vivo, mice; conditions: 2.8 mg/kg, twice a week via i.p. injection, 52 days
Protocol: Example 10: THSD (ALSD and ELSD, respectively) are tested in vivo in a mouse xenograft model for human lung cancer. The example is essentially performed as described for example 9 with the following modifications: human SCLC H446 cancer cells are used, and the tested agents include two statin conjugates (compounds of formula FId/compound 14 or “DZ2b” and FIId/compound 7 or “DZ2a”, respectively, designated “DZ-SIM-Ester” or “DZ-SIM-Amide” in FIG. 10), and a non-statin conjugate (“DZ-DHA”). SCLC H446 cells (1.5×10^6) are subcutaneously implanted on the bilateral flanks of athymic nude mice at age of 5 weeks. 10 days post cell implantation, mice are treated with DZ1 (2.8 mg/kg), SIM (2 mg/kg), DZ1-SIM-Amide/compound 7 or DZ1-SIM-Ester/compound 14 (4 mg/kg), and DZ1-DHA (4 mg/kg, DZ1-dihydroartemisinin ester “DZ1-DHA”, as shown in FIG. 11), twice a week via i.p. injection. (A) Tumor sizes are measured by caliper every four days during the treatment period of 52 days, and volumes are calculated using formula […] as described in example 9 above. Confidence levels are indicated as *P<0.05, **P<0.01, ***P<0.0005.

[2] = test system: RhoA/B in H-1975 human lung cancer tumors; test: RhoA/B membrane staining of tumor tissue, H-1975 mouse model; format: in vivo, mice; conditions: 5 mg/kg
Protocol: RhoA/RhoB membrane staining of tumor tissue of a H-1975 human lung cancer cell mouse model is performed as described below, and the tumor-bearing mice are treated with a THSD (here an ALSD of formula FIId, “DZ2a”, compound 7) in comparison to the corresponding unconjugated dye (“DZ1”) and to Gefinitib (an EGFR inhibitor drug used for treatment of certain breast, lung and other cancers).
H-1975 cells, a cell model for human lung cancer that is resistant to Gefitinib (an EGFR inhibitor drug used for treatment of certain breast, lung and other cancers) are cultured as described above and injected subcutaneously into mice to develop tumors. The mice and the tumors that are formed are systemically exposed to an ALSD (here of formula FIId, “DZ2a”, compound 7) by intravenous injection. The tumor-bearing mice are treated with either Gefitinib (20 mg/kg), or with an ALSD (here of formula FIId, “DZ2a”, compound 7, 5 mg/kg), an unconjugated dye of formula III (“DZ1”, 5 mg/kg) or a combination of the ALSD with Gefitinib.
For immunostaining of tumor tissue, the animals are sacrificed by prescribed and approved euthanasia techniques. Tumor tissue (maximum thickness 3 mm) is sliced, formalin fixated, embedded into paraffin blocks which are sectioned and processed into paraffin section slides. […]

## CC1(C)C(/C=C/C2=C(Cl)C(=C/C=C3/N(CCCCCC(=O)O)c4ccccc4C3(C)C)/CCC2)=[N+](CCCCS(=O)(=O)[O-])c2ccccc21 [DZ1]
[1]
  mean tumor volume / growth inhibition: steep increase in tumor volume
[2]
  RhoA/B staining of tumor cell membranes: staining persists in the membranes
